From PMC8286840, “Identifying SARS-CoV-2 antiviral compounds by screening for small molecule inhibitors of Nsp3 papain-like protease” (Biochemical Journal, 2021)
Structures can show the parent of a compound that is named as a salt. Where two headings read alike, the source gives them in different places.

How the values were obtained:
[1] = molecular target: T1, SARS-CoV-2 PLpro (nsp3 1564–1878) (Severe acute respiratory syndrome coronavirus 2, UniProt P0DTD1); test: biochemical; parameters: FRET-quenched peptide (Pro3) cleavage by PLpro, 10 min pre-incubation, slope over 20 min, normalised to no-compound control; settings: low concentration screen, read-out: % of control remaining
[2] = molecular target: T1, SARS-CoV-2 PLpro (nsp3 1564–1878); test: biochemical; parameters: FRET-quenched peptide (Pro3) cleavage by PLpro, 10 min pre-incubation, slope over 20 min, normalised to no-compound control; settings: high concentration screen, read-out: % of control remaining

Nc1ncnc2c1c(I)cn2[C@@H]1O[C@H](CO)[C@@H](O)[C@H]1O [5-Iodotubercidin]
remaining activity at 1.25 µM ([1]; Well no.=2479): 100%
remaining activity at 3.75 µM ([2]; Well no.=2479): 101%

COc1cccc2oc(-c3ccccc3)cc(=O)c12 [5-Methoxyflavone]
remaining activity at 1.25 µM ([1]; Well no.=3453): 92.1%
remaining activity at 3.75 µM ([2]; Well no.=3453): 90.5%

Cc1cn([C@H]2C[C@H](O)[C@@H](CO)O2)c(=O)nc1N [5-Methyl-2'-deoxycytidine]
remaining activity at 1.25 µM ([1]; Well no.=7493): 104%
remaining activity at 1.25 µM ([1]; Well no.=7720): 98.8%
remaining activity at 3.75 µM ([2]; Well no.=7493): 105%
remaining activity at 3.75 µM ([2]; Well no.=7720): 102%

Cc1cn([C@@H]2O[C@H](CO)[C@@H](O)[C@H]2O)c(=O)nc1N [5-Methylcytidine]
remaining activity at 1.25 µM ([1]; Well no.=6585): 103%
remaining activity at 1.25 µM ([1]; Well no.=8853): 100%
remaining activity at 3.75 µM ([2]; Well no.=6585): 104%
remaining activity at 3.75 µM ([2]; Well no.=8853): 88.8%

Cc1cn([C@@H]2O[C@H](CO)[C@@H](O)[C@H]2O)c(=O)[nH]c1=O [5-Methyluridine]
remaining activity at 1.25 µM ([1]; Well no.=6213): 101%
remaining activity at 1.25 µM ([1]; Well no.=8891): 96.6%
remaining activity at 3.75 µM ([2]; Well no.=6213): 91.5%
remaining activity at 3.75 µM ([2]; Well no.=8891): 98.5%

O=C(O)c1cc([N+](=O)[O-])ccc1NCCCc1ccccc1 [5-Nitro-2-(3-phenylpropylamino)benzoic acid]
remaining activity at 1.25 µM ([1]; Well no.=1047): 99.5%
remaining activity at 3.75 µM ([2]; Well no.=1047): 99.3%

CN(C)c1ccc(C2Nc3ccc4ccccc4c3C3=C2C(=O)CC(C)(C)C3)cc1Br (stereo not drawn) [5-[3-bromo-4-(dimethylamino)phenyl]-2,2-dimethyl-2,3,5,6-tetrahydrobenzo[a]phenanthridin-4(1H)-one]
remaining activity at 1.25 µM ([1]; Well no.=5515): 106%
remaining activity at 3.75 µM ([2]; Well no.=5515): 106%

Nc1ncn([C@@H]2O[C@H](CO)[C@@H](O)[C@H]2O)c(=O)n1 [5-azacytidine]
remaining activity at 1.25 µM ([1]; Well no.=155): 95.5%
remaining activity at 3.75 µM ([2]; Well no.=155): 96.6%

OB1OCc2cc(F)ccc21 [5-fluoro-2,1-benzoxaborol-1(3H)-ol]
remaining activity at 1.25 µM ([1]; Well no.=5477): 103%
remaining activity at 3.75 µM ([2]; Well no.=5477): 109%

C[C@H]1O[C@@H](n2cc(F)c(=O)[nH]c2=O)[C@H](O)[C@@H]1O [5-fluoro-5'-deoxyuridine]
remaining activity at 1.25 µM ([1]; Well no.=663): 102%
remaining activity at 3.75 µM ([2]; Well no.=663): 98.8%

COc1ccc(-c2cc(=O)c3c(O)c(OC)c(OC)cc3o2)cc1O [5-hydroxy-2-(3-hydroxy-4-methoxyphenyl)-6,7-dimethoxy-4H-chromen-4-one]
remaining activity at 1.25 µM ([1]; Well no.=5983): 98.6%
remaining activity at 3.75 µM ([2]; Well no.=5983): 95.3%

O=c1cc(CO)occ1O [5-hydroxy-2-(hydroxymethyl)-4H-pyran-4-one]
remaining activity at 1.25 µM ([1]; Well no.=5437): 109%
remaining activity at 3.75 µM ([2]; Well no.=5437): 113%

CCCCCC(O)CCCC(=O)O (stereo not drawn) [5-hydroxydecanoic acid sodium]
remaining activity at 1.25 µM ([1]; Well no.=714): 88.7%
remaining activity at 3.75 µM ([2]; Well no.=714): 85.9%

COC(=O)C1=C(C#N)NC(C)=C(C(=O)OC(C)C)C1c1cccc([N+](=O)[O-])c1 (stereo not drawn) [5-isopropyl 3-methyl 2-cyano-6-methyl-4-(3-nitrophenyl)-1,4-dihydro-3,5-pyridinedicarboxylate]
remaining activity at 1.25 µM ([1]; Well no.=6056): 94%
remaining activity at 3.75 µM ([2]; Well no.=6056): 89.3%

C[n+]1c2ccccc2nc2ccccc21 [5-methylphenazin-5-ium methyl sulfate]
remaining activity at 1.25 µM ([1]; Well no.=5668): 91.9%
remaining activity at 3.75 µM ([2]; Well no.=5668): 89.8%

CC(C)c1cccc(C(C)C)c1N1C(=O)c2ccc(O)cc2C1=O [5HPP-33]
remaining activity at 1.25 µM ([1]; Well no.=6085): 101%
remaining activity at 3.75 µM ([2]; Well no.=6085): 99.4%

CC(=O)[C@H]1CC[C@H]2[C@@H]3CC[C@H]4CC(=O)CC[C@]4(C)[C@H]3CC[C@]12C [5a-Pregnane-3,20-dione]
remaining activity at 1.25 µM ([1]; Well no.=7357): 106%
remaining activity at 3.75 µM ([2]; Well no.=7357): 105%

C[C@]12CC[C@@H](O)C[C@@H]1CC[C@@H]1[C@@H]2CC[C@]2(C)[C@@H](O)CC[C@@H]12 [5alpha-Androstane-3alpha,17beta-diol]
remaining activity at 1.25 µM ([1]; Well no.=244): 98.9%
remaining activity at 3.75 µM ([2]; Well no.=244): 94.8%

O=c1[nH]c2ccccc2c2ccccc12 [6(5H)-Phenanthridinone]
remaining activity at 1.25 µM ([1]; Well no.=1305): 104%
remaining activity at 3.75 µM ([2]; Well no.=1305): 107%

CCCCCCCCCCC/C=C/CCCCC(=O)O [6(E)-Octadecenoic acid]
remaining activity at 1.25 µM ([1]; Well no.=4318): 105%
remaining activity at 3.75 µM ([2]; Well no.=4318): 99.5%

CC/C=C\C/C=C\C/C=C\C/C=C\CCCCC(=O)O [6(Z), 9(Z), 12(Z), 15(Z)-Octadecatetraenoic acid]
remaining activity at 1.25 µM ([1]; Well no.=4398): 101%
remaining activity at 3.75 µM ([2]; Well no.=4398): 97.4%

CCCCC/C=C\C/C=C\C/C=C\CCCCC(=O)O [6(Z), 9(Z), 12(Z)-Octadecatrienoic Acid]
remaining activity at 1.25 µM ([1]; Well no.=4360): 107%
remaining activity at 3.75 µM ([2]; Well no.=4360): 107%

CCCCCCCCCCC/C=C\CCCCC(=O)O [6(Z)-Octadecenoic acid]
remaining activity at 1.25 µM ([1]; Well no.=4316): 103%
remaining activity at 3.75 µM ([2]; Well no.=4316): 98.8%

NC1CCc2cc(O)c(O)cc2C1 (stereo not drawn) [6,7-ADTN hydrobromide]
remaining activity at 1.25 µM ([1]; Well no.=444): 101%
remaining activity at 3.75 µM ([2]; Well no.=444): 104%

O=c1cc(-c2ccccc2)oc2cc(O)c(O)cc12 [6,7-Dihydroxyflavone]
remaining activity at 1.25 µM ([1]; Well no.=3441): 100%
remaining activity at 3.75 µM ([2]; Well no.=3441): 98.9%

Fc1cc(F)c2c(c1)C1C=CCC1C(c1cccnc1)N2 (stereo not drawn) [6,8-difluoro-4-(3-pyridinyl)-3a,4,5,9b-tetrahydro-3H-cyclopenta[c]quinoline]
remaining activity at 1.25 µM ([1]; Well no.=5390): 97.2%
remaining activity at 3.75 µM ([2]; Well no.=5390): 91.3%

CC(=O)N[C@H]1CN2CC[C@H](O)[C@@H]2[C@@H](O)[C@@H]1O [6-Acetamido-6-deoxy-castanospermine]
remaining activity at 1.25 µM ([1]; Well no.=3294): 97.4%
remaining activity at 3.75 µM ([2]; Well no.=3294): 99.3%

NCCCCCC(=O)O [6-Aminohexanoic acid]
remaining activity at 1.25 µM ([1]; Well no.=6): 101%
remaining activity at 3.75 µM ([2]; Well no.=6): 102%

C[C@H](O)[C@H](O)c1cnc2nc(N)[nH]c(=O)c2n1 [6-Biopterin]
remaining activity at 1.25 µM ([1]; Well no.=6447): 99.6%
remaining activity at 3.75 µM ([2]; Well no.=6447): 95.8%

COc1cc2c(CCNC(C)=O)c[nH]c2cc1Cl [6-Chloromelatonin]
remaining activity at 1.25 µM ([1]; Well no.=89): 98.5%
remaining activity at 3.75 µM ([2]; Well no.=89): 101%

NCC(O)c1cc(O)c(O)cc1F (stereo not drawn) [6-Fluoronorepinephrine hydrochloride]
remaining activity at 1.25 µM ([1]; Well no.=227): 97.7%
remaining activity at 3.75 µM ([2]; Well no.=227): 97%

O=Cc1c2[nH]c3ccccc3c2cc2[nH]c3ccccc3c12 [6-Formylindolo [3,2-B] carbazole]
remaining activity at 1.25 µM ([1]; Well no.=4507): 90.7%
remaining activity at 3.75 µM ([2]; Well no.=4507): 97.6%

O=c1cc(-c2ccccc2)oc2ccc(O)cc12 [6-Hydroxyflavone (6-HF)]
remaining activity at 1.25 µM ([1]; Well no.=8104): 98.9%
remaining activity at 3.75 µM ([2]; Well no.=8104): 98.5%
